Measured values reported in patent US7855177B1, “Methods and kits for preventing hypoglycemia” (Cebix Inc., priority 2009, dated 2010).

System: type 1 diabetes patients with peripheral neuropathy
Assay: Phase II trial: clinical laboratory evaluation (hematology, blood chemistry, urinalysis)
Format: in vivo, human
Settings: following the study treatment
Description: Hematology: hemoglobin, hematocrit, mean cell volume, leukocytes, platelets, differential count
Blood chemistry: sodium, potassium, C-reactive protein (CRP), alanine transaminase, aspartate transaminase, serum creatinine, albumin
Urinanalysis: protein, blood, nitrite
Before starting the study, the investigator supplied the Sponsor with a list of the normal laboratory ranges and units of measurement for the laboratory variables to be determined during the study at the site. All abnormal laboratory (those out of the normal range) values required comments on the CRF, regardless of the clinical significance: […]

CC(C)C[C@H](NC(=O)[C@H](C)NC(=O)[C@H](CC(C)C)NC(=O)[C@@H]1CCCN1C(=O)[C@H](CCC(N)=O)NC(=O)[C@H](CC(C)C)NC(=O)[C@H](CO)NC(=O)CNC(=O)[C@H](C)NC(=O)CNC(=O)[C@@H]1CCCN1C(=O)CNC(=O)CNC(=O)CNC(=O)[C@H](CC(C)C)NC(=O)[C@H](CCC(=O)O)NC(=O)[C@@H](NC(=O)[C@H](CCC(N)=O)NC(=O)CNC(=O)[C@@H](NC(=O)[C@H](CCC(N)=O)NC(=O)[C@H](CC(C)C)NC(=O)[C@H](CC(=O)O)NC(=O)[C@H](CCC(=O)O)NC(=O)[C@H](C)NC(=O)[C@@H](N)CCC(=O)O)C(C)C)C(C)C)C(=O)N[C@@H](CCC(=O)O)C(=O)NCC(=O)N[C@@H](CO)C(=O)N[C@@H](CC(C)C)C(=O)N[C@@H](CCC(N)=O)C(=O)O [C-peptide]
changes in laboratory variables: no significant changes in any of the variables
